Assay results published in US20100120050A1, “Biomarkers For Assessing Altherosclerotic Potential” (ENTELOS, INC., priority 2008, published 2010).
Where two headings read alike, the source gives them in different places.

Columns and labels:
hepatic genes (liver) = system: hepatic genes (liver)
Experimental: While the molecular target for PPARγ is not in the liver, it represents the effects of changes in metabolism of the whole animal, which impact liver lipoprotein production and clearance.
Male Sprague-Dawley (Crl:CD® (SD)(IGS)BR) rats (Charles River Laboratories, Portage, Mich.), weight matched, 7 to 8 weeks of age, were housed individually in hanging, stainless steel, wire-bottom cages in a temperature (66-77° F.), light (12-hour dark/light cycle) and humidity (30-70%) controlled room. Water and rodent diet were available ad libitum throughout the 5 day acclimatization period and during the 5 day treatment period. Housing and treatment of the animals were in accordance with regulations outlined in the USDA Animal Welfare Act (9 CFR Parts 1, 2 and 3).
Rats (three per group) were dosed daily at either a low or high dose. […] Animals were necropsied on days 0.25, 1, 3, and 5. Up to 13 tissues (e.g., liver, kidney, heart, bone marrow, blood, spleen, brain, intestine, glandular and nonglandular stomach, lung, muscle, and gonads) were collected for histopathological evaluation and microarray expression profiling on the Affymetrix Rat Whole Genome RG230 v2 platform. In addition, a clinical pathology panel consisting of 37 clinical chemistry and hematology parameters was generated from blood samples collected on days 3 and 5.
Gene expression profiling, data processing and quality control were performed using protocols recommended by. Briefly, liver samples from 3 rats were chosen at random from each treatment and control group for each timepoint for expression profile analysis on the Affymetrix Rat Whole Genome RG230 v2 microarray (Affymetrix, Santa Clara, Calif.). Log transformed signal data for all probes were array-wise normalized using the Affymetrix MASS algorithm. Expression log ratios of base 10 (log(10) ratios) were computed as the difference between the logs of the averaged normalized experimental signals and the averaged normalized time-matched vehicle control signals for each gene.

[1] = clinical trials and post-marketing; cited from earlier work

## CN(CCOc1ccc(CC2SC(=O)NC2=O)cc1)c1ccccn1 (stereo not shown) [rosiglitazone]
Hepatic genes (liver); rat liver, probe AA891362, Rn.92789, oral gavage, experiments of Table 3
  Average Log (10) Ratio: L-3-hydroxyacyl-Coenzyme A dehydrogenase, short chain: −0.205
Hepatic genes (liver); rat liver, probe AA899304, Rn.4054, oral gavage, experiments of Table 3
  Average Log (10) Ratio: acetyl-coenzyme A acetyltransferase 1: 0.546
Hepatic genes (liver); rat liver, probe AA945548, Rn.91296, oral gavage, experiments of Table 3
  Average Log (10) Ratio: transferrin: −0.376
Hepatic genes (liver); rat liver, probe AF286470, Rn.801, oral gavage, experiments of Table 3
  Average Log (10) Ratio: sterol regulatory element binding factor 1: −0.464
Hepatic genes (liver); rat liver, probe AI176576, Rn.6975, oral gavage, experiments of Table 3
  Average Log (10) Ratio: CCAAT/enhancer binding protein (C/EBP), delta: −0.407
Hepatic genes (liver); rat liver, probe AI179334, Rn.9486, oral gavage, experiments of Table 3
  Average Log (10) Ratio: fatty acid synthase: −0.182
Hepatic genes (liver); rat liver, probe AI385341, Rn.9753, oral gavage, experiments of Table 3
  Average Log (10) Ratio: peroxisome proliferator activated receptor alpha: 0.461
Hepatic genes (liver); rat liver, probe AI406700, Rn.9737, oral gavage, experiments of Table 3
  Average Log (10) Ratio: perilipin: 0.137
Hepatic genes (liver); rat liver, probe AI713204, Rn.40396, oral gavage, experiments of Table 3
  Average Log (10) Ratio: monoglyceride lipase: 0.439
Hepatic genes (liver); rat liver, probe AW526669, Rn.169550, oral gavage, experiments of Table 3
  Average Log (10) Ratio: phosphatidylinositol 3-kinase, C2 domain containing, gamma polypeptide: 0.692
Hepatic genes (liver); rat liver, probe AY081195, Rn.40396, oral gavage, experiments of Table 3
  Average Log (10) Ratio: monoglyceride lipase: 0.621
Hepatic genes (liver); rat liver, probe BE105603, Rn.4090, oral gavage, experiments of Table 3
  Average Log (10) Ratio: mitogen-activated protein kinase 8: −0.104
Hepatic genes (liver); rat liver, probe BF396857, Rn.46942, oral gavage, experiments of Table 3
  Average Log (10) Ratio: ELOVL family member 6, elongation of long chain fatty acids (yeast): 0.495
Hepatic genes (liver); rat liver, probe BF398848, Rn.801, oral gavage, experiments of Table 3
  Average Log (10) Ratio: sterol regulatory element binding factor 1: −0.461
Hepatic genes (liver); rat liver, probe BF407188, Rn.15135, oral gavage, experiments of Table 3
  Average Log (10) Ratio: RIKEN cDNA 1500016L11 (DBSS): −0.448
Hepatic genes (liver); rat liver, probe BG372713, Rn.40396, oral gavage, experiments of Table 3
  Average Log (10) Ratio: monoglyceride lipase: 0.551
Hepatic genes (liver); rat liver, probe BG376902, Rn.11094, oral gavage, experiments of Table 3
  Average Log (10) Ratio: Pyruvate carboxylase: −0.172
Hepatic genes (liver); rat liver, probe BG377636, Rn.98393, oral gavage, experiments of Table 3
  Average Log (10) Ratio: acetyl CoA transferase-like (DBSS): 0.519
Hepatic genes (liver); rat liver, probe BI278687, Rn.117434, oral gavage, experiments of Table 3
  Average Log (10) Ratio: phospholipid transfer protein (DBSS): −0.378
Hepatic genes (liver); rat liver, probe BI281656, Rn.39132, oral gavage, experiments of Table 3
  Average Log (10) Ratio: guanine nucleotide binding protein, alpha stimulating, olfactory type: 0.107
Hepatic genes (liver); rat liver, probe BI282488, Rn.3786, oral gavage, experiments of Table 3
  Average Log (10) Ratio: acetyl-Coenzyme A acyltransferase 2 (mitochondrial 3-oxoacyl-Coenzyme A thiolase): 0.679
Hepatic genes (liver); rat liver, probe BI288209, Rn.44456, oral gavage, experiments of Table 3
  Average Log (10) Ratio: glycerol-3-phosphate acyltransferase, mitochondrial: −0.183
Hepatic genes (liver); rat liver, probe BI292438, Rn.79322, oral gavage, experiments of Table 3
  Average Log (10) Ratio: elongation of very long chain fatty acids (FEN1/Elo2, SUR4/Elo3, yeast)-like 3 (DBSS): −0.042
Hepatic genes (liver); rat liver, probe BI850137, Rn.83595, oral gavage, experiments of Table 3
  Average Log (10) Ratio: NCI_CGAP_Emb2 cDNA clone IMAGE: 4176354: −0.414
Hepatic genes (liver); rat liver, probe BM389330, Rn.18101, oral gavage, experiments of Table 3
  Average Log (10) Ratio: pyruvate dehydrogenase kinase, isoenzyme 3 (mapped): −0.646
Hepatic genes (liver); rat liver, probe BM390399, Rn.9437, oral gavage, experiments of Table 3
  Average Log (10) Ratio: 3-hydroxy-3-methylglutaryl-Coenzyme A reductase: 0.392
Hepatic genes (liver); rat liver, probe D14989, Rn.91378, oral gavage, experiments of Table 3
  Average Log (10) Ratio: sulfotransferase family 2A, dehydroepiandrosterone (DHEA)-preferring, member 1: 0.570
Hepatic genes (liver); rat liver, probe J02582, Rn.32351, oral gavage, experiments of Table 3
  Average Log (10) Ratio: apolipoprotein E: −0.324
Hepatic genes (liver); rat liver, probe J02585, Rn.1023, oral gavage, experiments of Table 3
  Average Log (10) Ratio: stearoyl-Coenzyme A desaturase 1: −0.668
Hepatic genes (liver); rat liver, probe M14952, Rn.33815, oral gavage, experiments of Table 3
  Average Log (10) Ratio: apolipoprotein B: −0.255
Hepatic genes (liver); rat liver, probe M15114, Rn.83595, oral gavage, experiments of Table 3
  Average Log (10) Ratio: NCI_CGAP_Emb2 cDNA clone IMAGE: 4176354: 0.409
Hepatic genes (liver); rat liver, probe M30596, Rn.161920, oral gavage, experiments of Table 3
  Average Log (10) Ratio: malic enzyme 1: 0.554
Hepatic genes (liver); rat liver, probe NM_012565, Rn.10447, oral gavage, experiments of Table 3
  Average Log (10) Ratio: glucokinase: −1.066
Hepatic genes (liver); rat liver, probe NM_012620, Rn.29367, oral gavage, experiments of Table 3
  Average Log (10) Ratio: serine (or cysteine) peptidase inhibitor, clade E, member 1: 0.819
Hepatic genes (liver); rat liver, probe NM_012701, Rn.87064, oral gavage, experiments of Table 3
  Average Log (10) Ratio: adrenergic receptor, beta 1: −0.177
Hepatic genes (liver); rat liver, probe NM_012735, Rn.91375, oral gavage, experiments of Table 3
  Average Log (10) Ratio: hexokinase 2: −0.330
Hepatic genes (liver); rat liver, probe NM_012769, Rn.87228, oral gavage, experiments of Table 3
  Average Log (10) Ratio: guanylate cyclase 1, soluble, beta 3: −0.348
Hepatic genes (liver); rat liver, probe NM_012770, Rn.10933, oral gavage, experiments of Table 3
  Average Log (10) Ratio: guanylate cyclase 1, soluble, beta 2: −0.465
Hepatic genes (liver); rat liver, probe NM_012806, Rn.9911, oral gavage, experiments of Table 3
  Average Log (10) Ratio: mitogen activated protein kinase 10: 0.458
Hepatic genes (liver); rat liver, probe NM_012930, Rn.11389, oral gavage, experiments of Table 3
  Average Log (10) Ratio: carnitine palmitoyltransferase 2: 0.494
Hepatic genes (liver); rat liver, probe NM_013134, Rn.9437, oral gavage, experiments of Table 3
  Average Log (10) Ratio: 3-hydroxy-3-methylglutaryl-Coenzyme A reductase: 0.389
Hepatic genes (liver); rat liver, probe NM_013174, Rn.7018, oral gavage, experiments of Table 3
  Average Log (10) Ratio: transforming growth factor, beta 3: −0.380
Hepatic genes (liver); rat liver, probe NM_013200, Rn.6028, oral gavage, experiments of Table 3
  Average Log (10) Ratio: carnitine palmitoyltransferase 1b, muscle: 0.984
Hepatic genes (liver); rat liver, probe NM_017222, Rn.85891, oral gavage, experiments of Table 3
  Average Log (10) Ratio: solute carrier family 10, member 2: −0.544
Hepatic genes (liver); rat liver, probe NM_017322, Rn.9910, oral gavage, experiments of Table 3
  Average Log (10) Ratio: mitogen-activated protein kinase 9: −0.348
Hepatic genes (liver); rat liver, probe NM_017340, Rn.31796, oral gavage, experiments of Table 3
  Average Log (10) Ratio: acyl-Coenzyme A oxidase 1, palmitoyl: 0.336
Hepatic genes (liver); rat liver, probe NM_021578, Rn.40136, oral gavage, experiments of Table 3
  Average Log (10) Ratio: transforming growth factor, beta 1: −0.592
Hepatic genes (liver); rat liver, probe NM_022627, Rn.15423, oral gavage, experiments of Table 3
  Average Log (10) Ratio: protein kinase, AMP-activated, beta 2 non-catalytic subunit: −0.211
Hepatic genes (liver); rat liver, probe NM_031131, Rn.24539, oral gavage, experiments of Table 3
  Average Log (10) Ratio: transforming growth factor, beta 2: 0.020
Hepatic genes (liver); rat liver, probe NM_031559, Rn.2856, oral gavage, experiments of Table 3
  Average Log (10) Ratio: carnitine palmitoyltransferase 1a, liver: 0.264
Hepatic genes (liver); rat liver, probe NM_031976, Rn.3619, oral gavage, experiments of Table 3
  Average Log (10) Ratio: protein kinase, AMP-activated, beta 1 non-catalytic subunit: −0.409
Hepatic genes (liver); rat liver, probe NM_033352, Rn.177278, oral gavage, experiments of Table 3
  Average Log (10) Ratio: ATP-binding cassette, sub-family D (ALD), member 1 (DBSS): 0.450
Hepatic genes (liver); rat liver, probe NM_053329, Rn.164865, oral gavage, experiments of Table 3
  Average Log (10) Ratio: insulin-like growth factor binding protein, acid labile subunit: −0.658
Hepatic genes (liver); rat liver, probe NM_053551, Rn.30070, oral gavage, experiments of Table 3
  Average Log (10) Ratio: pyruvate dehydrogenase kinase, isoenzyme 4: 0.442
Hepatic genes (liver); rat liver, probe NM_053923, Rn.169550, oral gavage, experiments of Table 3
  Average Log (10) Ratio: phosphatidylinositol 3-kinase, C2 domain containing, gamma polypeptide: −0.485
Hepatic genes (liver); rat liver, probe NM_053994, Rn.11126, oral gavage, experiments of Table 3
  Average Log (10) Ratio: pyruvate dehydrogenase E1 alpha 2: −0.338
Hepatic genes (liver); rat liver, probe NM_057133, Rn.10712, oral gavage, experiments of Table 3
  Average Log (10) Ratio: nuclear receptor subfamily 0, group B, member 2: 0.367
Hepatic genes (liver); rat liver, probe NM_133618, Rn.11253, oral gavage, experiments of Table 3
  Average Log (10) Ratio: hydroxyacyl-Coenzyme A dehydrogenase/3-ketoacyl-Coenzyme A thiolase/enoyl-Coenzyme A hydratase (trifunctional protein), beta subunit: 0.409
Hepatic genes (liver); rat liver, probe NM_134382, Rn.4243, oral gavage, experiments of Table 3
  Average Log (10) Ratio: ELOVL family member 5, elongation of long chain fatty acids (yeast): −0.486
Hepatic genes (liver); rat liver, probe U08027, Rn.89705, oral gavage, experiments of Table 3
  Average Log (10) Ratio: Glycerol-3-phosphate dehydrate dehydrogenase (mtGPDH) mRNA, 3′UTR: 0.635
Hepatic genes (liver); rat liver, probe U36771, Rn.44456, oral gavage, experiments of Table 3
  Average Log (10) Ratio: glycerol-3-phosphate acyltransferase, mitochondrial: −0.156
Hepatic genes (liver); rat, in vivo, po
  Average Log (10) Ratio: Cytochrome P450, family 2, subfamily b, polypeptide 2: 0.629
  Average Log (10) Ratio: cytochrome P450, family 2, subfamily b, polypeptide 13: 0.499
  Average Log (10) Ratio: cytochrome P450, family 3, subfamily a, polypeptide 13: 0.550
  Average Log (10) Ratio: cytochrome P450, family 7, subfamily a, polypeptide 1: −0.168
  Average Log (10) Ratio: cytochrome P450, family 8, subfamily b, polypeptide 1: 0.394
[1]
  risk of cardiovascular events: paradoxically increased risk of cardiovascular events
